Source: patent publication US20130310347A1, “MULTI-MODALITY MOLECULAR IMAGING HIGH-THROUGHPUT ASSAY FOR IDENTIFYING HEAT SHOCK PROTEIN 90 (HSP90) INHIBITORS” (The Board of Trustees of the Leland Stanford Junior …, priority 2012, published 2013)

Legend:
[1] = system: Hsp90 client proteins (Raf-1, total and phosphorylated Akt); experiment: Western blotting of Hsp90 client proteins in 293T cells; assay type: cell-based, human; settings: 5 μM, 24 h
Protocol: FIG. 5A is a digital image of a western blot analysis illustrating the effect of lead compounds on the expression of Hsp90 client proteins. 293T cells stably expressing Hsp90(α/β)/p23 split reporters were treated with carrier control or compounds CP1, CP9, or CP18 (5 μM each) for 24 h. The known Hsp90 inhibitor PU-H71 (2 μM) was used as a positive control. The expression of Hsp90 client proteins (Raf-1, total and phosphorylated Akt) was determined by western blotting. α-Tubulin was used as a loading control.
(§1) Cells treated with PU-H71 (2 μM) served as a positive control.
(§2) Cells treated with 2 μM of PU-H71 served as a positive control. Western blotting of Hsp70, phosphorylated and total Akt and co-immunoprecipitation of Hsp90(α/β)/p23 interactions was performed as described Inglese et al., (2006) Proc. Nat. Acad. Sci. U.S.A. 103: 11473-11478, incorporated herein by reference in its entirety. The expression of Raf-1 was determined using rabbit polyclonal antibodies against Raf-1 (0.5 μg/ml, Abcam).

[2] = system: endogenous Hsp90(α/β)/p23 interactions; experiment: Co-immunoprecipitation of Hsp90(α/β)/p23; assay type: cell-based, human; settings: 5 μM, 24 h, 293T cells
Protocol: FIG. 5B is a digital image of a western blot analysis illustrating the effects of compounds CP1, CP9 and CP18 on disruption of Hsp90α/p23 and Hsp90β/p23 as determined by co-immunoprecipitation using antibodies against p23 and probing with Hsp90α- and Hsp90β-specific antibodies. The blot was probed with antibodies against p23 to ensure similar immunoprecipitation efficiency. Cells treated with 2 μM of PU-H71 served as a positive control.
as §1, §2

[3] = system: phosphorylated/total Akt and Raf-1; experiment: Western blotting of Hsp90 client proteins in multiple cancer cell lines; assay type: cell-based, human; settings: BT474/MCF-7/SK-Br3, 1975, HT1080, 4-4/HUH7, PC3, 2008, U87MG, HT29
Description: FIGS. 10A and 10B show the effect of CP9 on the expression of Raf-1, phosphorylated Akt, and total Akt in 1975 lung cancer, BT474 breast cancer and HuH-7 liver cancer as determined by western blotting. α-Tubulin was used as the loading control.
CP9 had no effect on the expression of the Hsp90 client proteins in normal mouse embryonic fibroblasts (MEF) cells (FIG. 10C).

1975, 2008, HT29 cells = experiment: 3H-FLT cell uptake (mammalian thymidine kinase activities); assay type: cell-based; settings: 48 h post treatment
Protocol: FIG. 10D is a graph illustrating the effect of CP9 on mammalian thymidine kinase activities in 1975, 2008, HT29, and MEFs cells as determined by ^3H-FLT cell uptake studies 48 h post treatment. Results were expressed as mean counts per minute/μg protein/initial dose±S.E.M. *, p<0.05 vs. carrier control treated cells.
To determine the specificity of CP9 in inhibition of glucose metabolism, normal MEF cells were used as a control.
To determine the downstream effects of lead compounds on glucose metabolism, 1.5×10^5 293T, 1975 and 2008 and MEFs cells plated in 24-well plate for 24 h, prior to treatment with different concentrations of CP9 for 24 or 48 h and subsequent incubation with 1 μCi of ^3H-FDG in 500 μl of medium for 1 h at 37° C. Cells treated with 2.5 μM of PU-H71 served as a positive control. The total counts in each sample were normalized to that of the dose added to each well and to the amount of protein, and expressed as mean counts/dose/μg protein±S.E.M. Likewise, the effect of CP9 on cell proliferation was determined using 1 μCi of ^3H-FLT per well after 2 h of incubation at 37° C.

[4] = Body weight of treated mice; assay type: in vivo; settings: 43 h; P>0.05
[5] = system: DOX-resistant V79/ADR lung cancer cells; experiment: Sensitivity to DOX, Alamar Blue assay; assay type: cell-based; settings: DOX 0.31-10 μM with inhibitor (CP9 8 μM), 24 h
Protocol: (§3) FIGS. 13A-13C illustrate the inhibition of cell proliferation of DOX-resistant V79/ADR lung cancer cells by CP9 and the Hsp90 inhibitor PU-H71 in cell culture. V79 lung cancer cells and […] cells that are resistant to DOX were treated with DOX (0.31-10 μM) in the presence or absence of CP9 (8 μM) for 24 h before determination of cell number by an Alamar Blue assay.
(§4) Both Hsp90 isoforms (α and β) are expressed in cancer cells, but Hsp90β is constitutively expressed, whereas the expression of Hsp90α is highly inducible during stress and drug treatment. Using the genetically encoded split Renilla reporter system according to the disclosure, it was possible to decipher the individual contributions of each isoform in determining the sensitivity of Hsp90 inhibitors. It was reported that the transcription of MDR1 is regulated by HSF-1, which in turn is regulated by Hsp90α (Trepel et al., (2010) Nat. Rev. Cancer 10: 537-549). To determine the biological significance of CP9 selectivity in inhibiting Hsp90α/p23 interactions, V79 lung cancer cells and V79/ADR cells that overexpress multidrug-resistant protein and are insensitive to growth inhibition by doxorubicin (DOX) were used. V79 and V79/ADR cells were treated with DOX alone or in the presence of CP9. On the other hand, the addition of CP9 sensitized V79/ADR cells to DOX, as shown by the decrease in cell proliferation relative to treatment with DOX alone, as shown in FIG. 13B. […] The results also are consistent with the observation that derivatives of Hsp90 inhibitor peptides sensitize cancer cells with overexpression of MDR to epirubicin (a class of anthracyclines that includes DOX) (Molnar et al., (2007) In Vivo 21: 429-433).

V79 lung cancer cells = experiment: Sensitivity to DOX, Alamar Blue assay; assay type: cell-based; settings: DOX 0.31-10 μM with CP9 8 μM, 24 h
Protocol: as §3, §4

Cc1cc(NC(=O)CSc2nc(-c3cccs3)cc(C(F)(F)F)n2)no1 [CP9, N-(5-methylisoxazol-3-yl)-2-(4-(thiophen-2-yl)-6-(trifluoromethyl)pyrimidin-2-ylthio)acetamide]
levels of Hsp90 client proteins (pAkt/total Akt, Raf-1) [1]: more effective than CP18
disruption of endogenous Hsp90(α/β)/p23 interactions by co-immunoprecipitation [2]: disruption of endogenous Hsp90(α/β)/p23 interactions
degradation of phosphorylated/total Akt and Raf-1 [3]: various levels of degradation
3H-FLT uptake in cancer cell lines (1975, 2008, HT29 cells): inhibits
body weight vs carrier control-treated mice [4]: no significant decreases in weight
sensitivity of drug-resistant V79/ADR cells to DOX [5]: partially restored the sensitivity
sensitivity of drug-sensitive V79 cells to DOX (V79 lung cancer cells): did not affect the sensitivity
